# Values of other authors as cited in patent publication EP4778926A1, “DEUTERATED DIARYL GLYCOLURIL TETRAMER COMPOUND AND USE THEREOF” (Shanghai Institute of Organic Chemistry, Chinese Academy of …, priority 2023, dated 2025).
# Where two headings read alike, the source gives them in different places.
# What was measured:
# [1] = rats; Cisatracurium Besylate (0.6 mg/kg); neostigmine 0.24 mg/kg; from literature (Liu et al.)
# [2] = for TOF→0.9 time, Average value: rats, Vecuronium Bromide (0.7 mg/kg), from literature (Liu et al.)
# [3] = rats; pancuronium bromide (0.5 mg/kg); neostigmine 0.24 mg/kg; from literature (Liu et al.)
# [4] = for TOF→0.9 time, Average time: rats, Rocuronium bromide (3.5 mg/kg), from literature (Liu et al.)
SMILES,"TOF→0.9 time, Average time [1] [s]","TOF→0.9 time, Average value ([2]; neostigmine 0.24 mg/kg) [s]","TOF→0.9 time, Average value [3] [s]","TOF→0.9 time, Average time ([4]; neostigmine 0.24 mg/kg) [s]","TOF→0.9 time, Average value ([2]; Sugammadex Sodium 25 mg/kg) [s]","time that TOF recovered to 0.9 ([2]; vecuronium bromide, sugammadex sodium at the same dose (25 mg/kg), literature data) [s]","TOF→0.9 time, Average time ([4]; Sugammadex Sodium 25 mg/kg) [s]","time that TOF recovered to 0.9 ([4]; rocuronium bromide, sugammadex sodium at the same dose (25 mg/kg), literature data) [s]"
CN(C)C(=O)Oc1cccc([N+](C)(C)C)c1 [neostigmine],210,315,1371,363,–,–,–,–
O=C([O-])CCSC[C@H]1O[C@@H]2O[C@H]3[C@H](O)[C@@H](O)[C@@H](O[C@H]4[C@H](O)[C@@H](O)[C@@H](O[C@H]5[C@H](O)[C@@H](O)[C@@H](O[C@H]6[C@H](O)[C@@H](O)[C@@H](O[C@H]7[C@H](O)[C@@H](O)[C@@H](O[C@H]8[C@H](O)[C@@H](O)[C@@H](O[C@H]9[C@H](O)C(O)[C@@H](O[C@H]1[C@H](O)[C@H]2O)O[C@@H]9CSCCC(=O)[O-])O[C@@H]8CSCCC(=O)[O-])O[C@@H]7CSCCC(=O)[O-])O[C@@H]6CSCCC(=O)[O-])O[C@@H]5CSCCC(=O)[O-])O[C@@H]4CSCCC(=O)[O-])O[C@@H]3CSCCC(=O)[O-].[Na+].[Na+].[Na+].[Na+].[Na+].[Na+].[Na+].[Na+] (some centres unmarked) [Sugammadex Sodium],–,–,–,–,18,18,52,52
